Test results as given in PMC10384862, “[^212Pb]Pb-eSOMA-01: A Promising Radioligand for Targeted Alpha Therapy of Neuroendocrine Tumors” (Pharmaceuticals, 2023).
Where two headings read alike, the source gives them in different places.

Columns and labels:
[1] = LogD7.4 by shake-flask method (n-octanol/PBS); assay type: physicochemical; settings: ^203Pb-labeled compound; n-octanol/PBS pH 7.4; n = 3
Protocol: Distribution coefficients (LogD7.4) were determined by the shake-flask method. A sample containing the ^203Pb-labeled compound (~1 MBq) was added to a vial containing PBS (600 µL, pH 7.4) and n-octanol (600 µL). The vial was vortexed vigorously and then centrifuged at 10,000 rpm for 10 min for phase separation. Samples (100 µL) of the n-octanol and aqueous phases were taken and measured by a gamma counter. The LogD7.4 value was calculated by using the equation: LogD7.4 = log [(counts in the n-octanol phase)/(counts in the aqueous phase)]. Measurements were performed in triplicate.

[2] = In vitro stability in PBS; assay type: physicochemical; settings: phosphate buffered saline, pH 7.4; ^203Pb-labeled; 24 h; 37 °C; n = 1; read-out: Stability in PBS, intact labeled ligand
Protocol: The ^203Pb-labeled compounds (~ 2 MBq) or the ^212Pb-labeled compounds (~ 70 kBq) were incubated in 300 µL of phosphate buffered saline (PBS; 0.1 M, pH 7.4) or mouse serum at 37 °C. The stability of the radiolabeled peptides was monitored at 1, 4, and 24 h post-incubation. The samples in PBS were directly analyzed by radio-HPLC without any pretreatment. However, samples of mouse serum were mixed with an equal volume of acetonitrile to precipitate the proteins. The solution was centrifuged twice for 5 min at 13,000 rpm, and the supernatant was analyzed by radio-HPLC using Method 1 for lead-203 and Method 2 for lead-212.

[3] = system: AR42J tumors; settings: in vivo, cited from earlier work
[4] = SPECT/CT imaging with 203Pb-labeled ligands; assay type: in vivo; settings: mouse; for tissue uptake per volume / tissue uptake per volume at 1 h / tissue uptake per volume at 24 h: male, Balb/c nu/nu, tumor, iv, 0.5 nmol, total radioactivity, read-out: Tumor uptake from SPECT images; for tissue uptake per volume: 1, 4 and 24 h after administration, n = 4; for tissue uptake per volume at 1 h: 1 h post-injection; for tissue uptake per volume at 24 h: 24 h post-injection; for half-life: kidneys, intravenous, ^203Pb-labeled, H69 tumor-bearing mice, read-out: Renal clearance half-life (converted)
Protocol: SPECT/CT imaging was performed in H69-xenografted Balb/c nu/nu mice at 1, 4, and 24 h after the administration of [^203Pb]Pb-eSOMA-01 or [^203Pb]Pb-eSOMA-02. Tumors were visible by SPECT/CT for both radioligands (Figure 3A,B). […] They increased over time for [^203Pb]Pb-eSOMA-01 (0.5 ± 0.03 at 4 h to 0.70 ± 0.11 at 24 h), while they remained nearly constant for [^203Pb]Pb-eSOMA-02 (0.30 ± 0.09 at 4 h and 0.4 ± 0.03 at 24 h).
(§1) Six-week-old male Balb/c nu/nu-specific and opportunistic pathogen-tree (SOPF) mice (Janvier Labs, Le Genest-Saint-Isle, France) were housed in individually ventilated cages, with four mice per cage. Upon arrival, the mice were acclimated for 1 week with access to food and water ad libitum. Mice were subcutaneously inoculated on the right shoulder with NCI-H69 cells (5 × 10^6 cells suspended in 100 μL of 1/3 Matrigel (Corning Inc.; Corning, NY, USA) and 2/3 Hank’s balanced salt solution (Gibco; Paisley, UK). NCI-H69 xenografts were allowed to grow for 3 weeks. Tumor sizes were 391 ± 173 mm^3 at the start of the studies.
Mice (n = 4 per compound) were intravenously injected in the tail vein with 100 μL of [^203Pb]Pb-eSOMA-01 (12.31 ± 1.44 MBq, 0.5 nmol) or [^203Pb]Pb-eSOMA-02 (13.06 ± 1.44 MBq, 0.5 nmol) containing Kolliphor HS 15 (Merck; Haarlerbergweg, The Netherlands) in PBS (0.06 mg/mL). At 1, 4, and 24 h post-injection (p.i.), mice were imaged in a prone position on a heated bed under 2% isoflurane/O2 anesthesia in a dedicated small-animal PET/SPECT/CT VECTOR5 scanner (MILabs B.V.; Utrecht, The Netherlands) with a high-sensitivity pinhole collimator (HE-GP-M, 1.6 mm pinholes). Whole-body SPECT images were acquired over one frame of 20 min (for 1 and 4 h time points) and two frames of 20 min (for 24 h time points) using a spiral scan in normal scan mode, in list-mode acquisition. This was followed by a whole-body normal CT scan (angle step 0.75 degrees, 50 kV tube voltage, 0.21 mA tube current). Reconstruction of the SPECT images was performed using the similarity-regulated SROSEM method (MILabs Rec 11.00 software), performing five iterations with a voxel size of 0.4 mm, using 72 keV ± 30% and 280 keV ± 8% energy windows for lead-203. Reconstructed volumes of SPECT scans were post-filtered with an isotropic three-dimensional Gaussian filter of 1 mm full width at half-maximum. Image processing and analyses of the reconstructed data were performed using the PMOD image analysis software version 3.9 (PMOD Technologies; Zurich, Switzerland) to calculate the percentage of injected dose per mL (% ID/mL). An Eppendorf tube filled with a solution of lead-203 of known activity was measured to determine the calibration factor.

[5] = Ex vivo biodistribution with lead-203; assay type: in vivo, mouse; settings: mouse, 24 h post-injection
Protocol: as §1
(§2) To determine the biodistribution of the compounds after imaging (1, 4, and 24 h p.i.), blood was collected via retro-orbital puncture under isoflurane/O2 anesthesia, after which the mice were sacrificed via cervical dislocation. The tumor and organs of interest (heart, lungs, liver, spleen, stomach, large intestine, small intestine, pancreas, kidneys, muscle, skin, and bone) were excised, washed in PBS, blotted dry, and collected into tubes. The blood, tumor, and relevant organs were weighed and measured with a gamma counter. The percentage of injected dose per gram (% ID/g) was determined for each tissue sample and corrected for both the injected volume and the % ID present at the injection site (the tail).

[6] = system: H69 tumor bearing mice; test: Ex vivo biodistribution with lead-203; assay type: in vivo, mouse; settings: after 4 h (so in the source); p < 0.05
Protocol: as §1, §2

[7] = blood, n = 4, read-out: Blood uptake
[8] = bone, n = 4, read-out: Bones uptake
[9] = heart, n = 4, read-out: Heart uptake
[10] = kidneys, n = 4, read-out: Kidneys uptake
[11] = large intestine, n = 4, read-out: Large Intestine uptake
[12] = liver, n = 4, read-out: Liver uptake
[13] = lungs, n = 4, read-out: Lungs uptake
[14] = muscle, n = 4, read-out: Muscle uptake
[15] = non-target organs other than kidneys, intravenous, organs other than kidneys, read-out: Uptakes in all the other non-target organs
[16] = pancreas, n = 4, read-out: Pancreas uptake
[17] = skin, n = 4, read-out: Skin uptake
[18] = small intestine, n = 4, read-out: Small Intestine uptake
[19] = spleen, n = 4, read-out: Spleen uptake
[20] = stomach, n = 4, read-out: Stomach uptake
[21] = tumor, n = 4, read-out: Tumor uptake

| Compound | logD [1] | remaining at 24 h [2] [%] | tissue uptake per volume [4] [%ID/mL] | tissue uptake per volume at 1 h [4] [%ID/mL] | tissue uptake per volume at 24 h [4] [%ID/mL] | half-life [4] [h] | tissue uptake at 24 h [5, 7] [%ID/g] | tissue uptake at 24 h [5, 8] [%ID/g] | tissue uptake at 24 h [5, 9] [%ID/g] | tissue uptake at 24 h [5, 10] [%ID/g] | tissue uptake at 24 h [5, 11] [%ID/g] | tissue uptake at 24 h [5, 12] [%ID/g] | tissue uptake at 24 h [5, 13] [%ID/g] | tissue uptake at 24 h [5, 14] [%ID/g] | tissue uptake at 24 h [5, 15] [%ID/g] | tissue uptake at 24 h [5, 16] [%ID/g] | tissue uptake at 24 h [5, 17] [%ID/g] | tissue uptake at 24 h [5, 18] [%ID/g] | tissue uptake at 24 h [5, 19] [%ID/g] | tissue uptake at 24 h [5, 20] [%ID/g] | further results |
| --- | --- | --- | --- | --- | --- | --- | --- | --- | --- | --- | --- | --- | --- | --- | --- | --- | --- | --- | --- | --- | --- |
| C[C@@H](O)[C@H](NC(=O)[C@@H]1CSSC[C@H](NC(=O)[C@@H](Cc2ccccc2)NC(=O)CN2CCN(CC(N)=O)CCN(CC(N)=O)CCN(CC(N)=O)CC2)C(=O)N[C@@H](Cc2ccc(O)cc2)C(=O)N[C@H](Cc2c[nH]c3ccccc23)C(=O)N[C@@H](CCCCN)C(=O)N[C@@H]([C@@H](C)O)C(=O)N1)C(=O)O [[^203Pb]Pb-DOTAM-TATE, metal not drawn, reference compound] | -1.41 ± 0.01 | > 97 | – | – | – | – | – | – | – | – | – | – | – | – | – | – | – | – | – | – | Tumor uptake ([3]; 1 h): 13 % ID/g; Uptake in kidneys ([3]; 24 h): ~ 13 % ID/g |
| C[C@@H](O)[C@H](NC(=O)[C@@H]1CSSC[C@H](NC(=O)[C@@H](Cc2ccccc2)NC(=O)[C@H]2CC[C@H](CNC(=O)CN3CCN(CC(N)=O)CCN(CC(N)=O)CCN(CC(N)=O)CC3)CC2)C(=O)N[C@@H](Cc2ccc(O)cc2)C(=O)N[C@H](Cc2c[nH]c3ccccc23)C(=O)N[C@@H](CCCCN)C(=O)N[C@@H]([C@@H](C)O)C(=O)N1)C(=O)O [[^203Pb]Pb-eSOMA-01, metal not drawn] | -1.99 ± 0.03 | > 97 | 3 to 4 | ~4 | 2 to 3 | 14.7 ± 2.4 | 0.05 ± 0.02 | 0.27 ± 0.02 | 0.05 ± 0.01 | 7.44 ± 1.17 | 0.34 ± 0.08 | 0.86 ± 0.1 | 0.36 ± 0.05 | 0.18 ± 0.03 | < 1 | 0.12 ± 0.02 | 0.03 ± 0.02 | 0.12 ± 0.02 | 0.22 ± 0.03 | 0.75 ± 0.34 | tissue uptake at 24 h [5, 21]: 2.89 ± 0.84 %ID/g |
| C[C@@H](O)[C@H](NC(=O)[C@@H]1CSSC[C@H](NC(=O)[C@@H](Cc2ccccc2)NC(=O)CN2CCC(NC(=O)CN3CCN(CC(N)=O)CCN(CC(N)=O)CCN(CC(N)=O)CC3)CC2)C(=O)N[C@@H](Cc2ccc(O)cc2)C(=O)N[C@H](Cc2c[nH]c3ccccc23)C(=O)N[C@@H](CCCCN)C(=O)N[C@@H]([C@@H](C)O)C(=O)N1)C(=O)O [[^203Pb]Pb-eSOMA-02, metal not drawn] | -1.88 ± 0.03 | > 97 | 3 to 4 | ~4 | 2 to 3 | 24.2 ± 4.5 | 0.17 ± 0.11 | 0.67 ± 0.04 | 0.09 ± 0.02 | 12.6 ± 0.02 | 0.41 ± 0.06 | 1.11 ± 0.05 | 0.53 ± 0.04 | 0.04 ± 0.07 | < 1 | 0.83 ± 0.96 | 0.43 ± 0.09 | 0.24 ± 0.03 | 0.61 ± 0.15 | 0.67 ± 0.19 | tissue uptake at 24 h [5, 21]: 2.54 ± 0.36 %ID/g; More uptake in the kidneys compared to [203Pb]Pb-eSOMA-01 [6]: around 41% |
